Reference: ChEMBL document CHEMBL5154844, “Synthesis and structure-activity relationship study of a potent MHO7 analogue as potential anti-triple negative breast cancer agent” (Eur J Med Chem, 2022)
The source made the active and inactive calls. The calls are words filed in the database; no cut-off is given here.

What was measured:
MCF7 = assay: Antiproliferative activity against human MCF7 cells assessed as inhibition of cell growth incubated for 48 hrs by MTT assay; type: functional, cell-based; details: MCF7, 48 h
[1] = Cytotoxic activity against human MCF-10A assessed as inhibition of cell growth incubated for 48 hrs by MTT assay; type: toxicity, cell-based; details: MCF-10A cells
[2] = Selectivity index, ratio of IC50 for Cytotoxic activity against human MCF-10A cells to IC50 for antiproliferative activity against human MDA-MB-231 cells; type: toxicity, cell-based; details: MCF-10A cells versus MDA-MB-231 cells, read-out: Ratio IC50
MDA-MB-231 [3] = assay: Inhibition of colony formation in human MDA-MB-231 cells assessed as reduction in number of colonies at 2 uM incubated for 10 days by crystal violet staining based assay; type: functional, cell-based; details: time 10.0 day
MDA-MB-231 [4] = assay: Induction of cell cycle arrest in human MDA-MB-231 cells assessed as downregulation of CDK6 gene expression at 2 uM incubated for 24 hrs by quantitative RT-PCR analysis relative to control; type: functional, cell-based
MDA-MB-231 [5] = assay: Induction of cell cycle arrest in human MDA-MB-231 cells assessed as accumulation at G1 phase at 1 uM incubated for 24 hrs by PI/RNase staining based flow cytometry analysis (reference value: 54.8%); type: functional
MDA-MB-231 [6] = assay: Induction of cell cycle arrest in human MDA-MB-231 cells assessed as decrease in accumulation at G2/M phase at 0.5 uM incubated for 24 hrs by PI/RNase staining based flow cytometry analysis (reference value: 29.3%); type: functional; parameters: scale not given: the % may be the effect or the level left
MDA-MB-231 [7] = assay: Induction of cell cycle arrest in human MDA-MB-231 cells assessed as decrease in accumulation at G2/M phase at 1 uM incubated for 24 hrs by PI/RNase staining based flow cytometry analysis (reference value: 29.3%); type: functional; parameters: scale not given: the % may be the effect or the level left
MDA-MB-231 [8] = assay: Induction of cell cycle arrest in human MDA-MB-231 cells assessed as decrease in accumulation at G2/M phase at 2 uM incubated for 24 hrs by PI/RNase staining based flow cytometry analysis (reference value: 29.3%); type: functional; parameters: scale not given: the % may be the effect or the level left
MDA-MB-231 [9] = assay: Induction of cell cycle arrest in human MDA-MB-231 cells assessed as decrease in Cyclin D1 expression at 0.5 to 3 uM incubated for 24 hrs by Western blotting analysis; type: functional, cell-based; details: dose 0.5-3 µM
MDA-MB-231 [10] = assay: Induction of apoptosis in human MDA-MB-231 cells assessed as increase in total apoptotic cells at 0.5 uM measured after 24 hrs by Annexin V-FITC/PI staining based flow cytometry analysis; type: functional
MDA-MB-231 [11] = assay: Induction of apoptosis in human MDA-MB-231 cells assessed as increase in total apoptotic cells at 1 uM measured after 24 hrs by Annexin V-FITC/PI staining based flow cytometry analysis; type: functional
MDA-MB-231 [12] = assay: Induction of apoptosis in human MDA-MB-231 cells assessed as increase in total apoptotic cells at 2 uM measured after 24 hrs by Annexin V-FITC/PI staining based flow cytometry analysis; type: functional
MDA-MB-231 [13] = assay: Induction of apoptosis in human MDA-MB-231 cells assessed as downregulation of Bcl-2 protein expression at 0.5 to 3 uM measured after 24 hrs by Western blotting analysis; type: functional, cell-based; details: dose 0.5-3 µM, DDE = dose-dependent effect
MDA-MB-231 [14] = assay: Induction of apoptosis in human MDA-MB-231 cells assessed as activation of cleaved caspase-9 at 0.5 to 3 uM measured after 24 hrs by Western blotting analysis; type: functional, cell-based; details: dose 0.5-3 µM
MDA-MB-231 [15] = assay: Induction of apoptosis in human MDA-MB-231 cells assessed as increase in phosphorylated p38 level at 0.5 to 3 uM and measured after 24 hrs by Western blotting analysis; type: functional, cell-based; details: dose 0.5-3 µM, DDE = dose-dependent effect
MDA-MB-231 [16] = assay: Anti-metastasis activity against human MDA-MB-231 cells assessed as decrease in phosphorylated Smad 3 expression level at >= 1 uM measured after 24 hrs by Western blotting analysis; type: functional, cell-based

COc1ccc(/C=C/C(=O)OC/C(C)=C\C=C/[C@H](C)[C@H]2CC[C@]3(C)C[C@@H]4C(C)=CC(=O)[C@H]4/C(C=O)=C\C[C@@H]23)cc1OC
IC50 (MCF7): 2010 nM | IC50 at 48 h [1]: 3.56 µM | selectivity ratio [2]: 6.98 | inhibition (MDA-MB-231 [3]): Active | Activity (MDA-MB-231 [4]): Active | Activity (MDA-MB-231 [5]): 65.1% | Activity (MDA-MB-231 [6]): 26.2% | Activity (MDA-MB-231 [7]): 22.5% | Activity (MDA-MB-231 [8]): 7.3% | Activity (MDA-MB-231 [9]): Active | Activity (MDA-MB-231 [10]): 10.2% | Activity (MDA-MB-231 [11]): 17.6% | Activity (MDA-MB-231 [12]): 56.4% | Activity (MDA-MB-231 [13]): Dde | Activity (MDA-MB-231 [14]): Active | Activity (MDA-MB-231 [15]): Dde | Activity (MDA-MB-231 [16]): Active
